Measured values reported in patent US5089623A, “Certain imidate insecticides” (Imperial Chemical Industries Plc, priority 1990, dated 1992).

Columns and labels:
Assay type in all cases: in vivo
[1] = test system: Cabbage Looper [Trichoplusia ni (Hubner)]; test: Cabbage looper test (CL); conditions: second-instar larvae, 3-5 days, percent in solution
[2] = test system: Rice water weevil [Lissorhoptrus oryzophilus (Kuschel)]; test: Rice water weevil test (RWW); conditions: per weevil, topical, female adults, 48 hours
Description: The compounds in Tables 1 and 2 above were tested for insecticidal activity using the following testing procedures. LC50 values, based on the results of these tests and calculated according to dosage-mortality curves, are expressed in Table 3.
Rice water weevil [Lissorhoptrus oryzophilus (Kuschel)]
Test compounds were diluted in acetone. Droplets (1 ul) of test solutions were applied to the ventral abdomens of ten female adult weevils. The treated weevils were placed in containers with wet cotton balls and rice foliage. The containers were covered and kept at a temperature of about 25° C. Mortality was recorded after 48 hours. […] The LC50 values are expressed below in Table 3 under the heading "RWW" in terms of μg of test compound per weevil.

[3] = test system: Aster Leafhopper [Macrosteles fascifrens (Stal)]; test: Aster leafhopper test (LH); conditions: adults/nymphs, 48 hours, percent in solution
[4] = test system: Housefly [Musca domestica]; test: Housefly insecticidal test (HF); conditions: per 25 female houseflies, 48 hours
[5] = test system: Tobacco Budworm [Heliothis virescens (Fabricius)]; test: Tobacco budworm contact test (TBW-C); conditions: second-instar larvae, 5 days, percent in solution
Outline: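 Cotton cotyledons dipped 2–3 s in compound in 50:50 acetone–water, dried, then infested with 5 second-instar larvae and held 5 days at high humidity before scoring mortality.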

[6] = test system: Tobacco Budworm [Heliothis virescens (Fabricius)] eggs; test: Tobacco budworm egg test (TBW-E); conditions: percent in solution
[7] = test system: Maize weevil [Sitophilus Zeamais (Motschulsky)]; test: Maize weevil test (MW); conditions: adult weevils, treated corn seeds, 48 hours, percent in solution
Outline: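 Adult weevils (10) were placed with four corn seeds that had been dipped 2-3 s in compound dissolved in 50:50 acetone:water, then dried, and held at about 25° C. Mortality was scored at 48 h. LC50 was taken from dosage-mortality curves and expressed as percent compound in solution, from a 0.01% top concentration.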

[8] = test system: Beet Armyworm (Spodoptera exigua); test: Beet armyworm test (BAW); conditions: second-instar larvae, five days, percent in solution
Outline: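 Sugar beet leaves were dipped 2-3 s in compound diluted in 50-50 acetone-water, dried, then infested with five second-instar larvae in humid dishes. Mortality was scored after five days at concentrations from 0.1% downward. LC50 was taken from dosage-mortality curves as percent compound in solution.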

Structure (SMILES) | LC50 CL [1] [%] | LC50 RWW [2] [µg] | LC50 LH [3] [%] | LC50 HF [4] [µg] | LC50 TBW C [5] [%] | LC50 TBW E [6] [%] | LC50 MW [7] [%] | LC50 BAW [8] [%]
CC(C)C(=Nc1ccc(F)c(Br)c1)OCc1ccc(F)c(Oc2ccc(Cl)cc2)c1 [Compound 298] | 0.0001 | > 2.5 | 0.0001 | 13 | 0.0008 | 0.015 | 0.008 | 
CC(C)C(=Nc1ccc(C(F)(F)F)cc1)OCc1ccc(F)c(Oc2ccc(Cl)cc2)c1 [Compound 324] | 0.00014 | 0.06 |  | > 100 | 0.0004 | 0.025 |  | 0.0024
CC(C)C(=Nc1ccc2c(c1)OCO2)OCc1ccc(F)c(Oc2ccccc2)c1 [Compound 181] | 0.0005 | > 2.5 |  | 25 | 0.001 | 0.01 | 0.005 | 0.001
CC(C)C(=Nc1c(F)c(F)c(F)c(F)c1F)OCc1cccc(Oc2ccc(F)cc2)c1 [Compound 198] | 0.0005 | > 2.5 | 0.05 | 52 |  | > 0.1 | 0.003 | 
FC(F)(F)c1cccc(N=C(OCc2cccc(Oc3ccccc3)c2)C(Cl)Cl)c1 [Compound 66] | < 0.0025 | > 2.5 | 0.001 | 9.7 |  | 0.06 |  | 0.0065
CC(C)C(=Nc1ccc(F)c(Cl)c1)OCc1cccc(Oc2ccc(F)cc2F)c1 [Compound 191] | 0.00023 | > 2.5 | > 0.05 | 29 |  | 0.04 | 0.004 | 
CC(C)C(=Nc1ccc(C(F)(F)F)cc1)OCc1cccc(Oc2ccccc2)c1 [Compound 68] | 0.006 | 0.15 | 0.0001 | 37 |  | 0.009 | > 0.01 | 
CC(C)C(=Nc1ccc(F)c(F)c1)OCc1ccc(F)c(Oc2ccc(Cl)cc2)c1 [Compound 295] | 0.00004 | > 2.5 | 0.0001 | 7.8 | 0.0005 | 0.01 | 0.0053 | 
CC(C)C(=Nc1cccc(F)c1)OCc1ccc(F)c(Oc2ccc(Cl)cc2)c1 [Compound 375] | > 0.1 | > 2.5 |  | 7.9 |  | 0.04 | > 0.01 | 
CC(C)C(=Nc1ccc(F)c(Cl)c1)OCc1cccc(Oc2cccc(F)c2)c1 [Compound 125] | 0.0007 | > 2.5 | > 0.05 | 12 |  | 0.025 | > 0.01 | 
CC(C)C(=Nc1ccc(OC(F)(F)F)cc1)OCc1ccc(F)c(Oc2ccccc2)c1 [Compound 338] | 0.000065 | 0.044 |  | 26 | 0.00037 | 0.01 | 0.0053 | 
CC(C)C(=Nc1ccc(F)c(Cl)c1F)OCc1ccc(F)c(Oc2ccc(F)cc2)c1 [Compound 330] | 0.00012 | 0.06 | < 0.05 | 5 | 0.00035 | 0.037 | 0.001 | 
CC(C)C(=Nc1ccc(F)c(C(F)(F)F)c1)OCc1ccc(F)c(Oc2ccccc2)c1 [Compound 300] | 0.0003 | 0.075 | 0.00002 | 14 | 0.001 | 0.024 | 0.01 | 
CC(C)C(=Nc1ccc(Br)cc1)OCc1ccc(F)c(Oc2ccc(Cl)cc2)c1 [Compound 378] | 0.00034 | > 2.5 |  | < 100 |  | 0.02 | > 0.01 | 
CC(C)C(=Nc1ccc(C(F)(F)F)c(Br)c1)OCc1ccc(F)c(Oc2ccc(Cl)cc2)c1 [Compound 377] | 0.00062 | > 2.5 |  | < 100 |  | > 0.1 | > 0.01 | 
CC(C)C(=Nc1ccc(Cl)c(Cl)c1)OCc1ccc(F)c(Oc2ccc(F)cc2)c1 [Compound 289] | 0.00007 | 0.082 | 0.0003 | 10 |  | 0.006 | > 0.01 | 
CC(C)C(=Nc1ccc(Cl)c(OCC(F)(F)F)c1)OCc1ccc(F)c(Oc2ccc(Cl)cc2)c1 [Compound 452] | 0.0017 | 0.1 |  | > 100 |  | < 0.1 | > 0.01 | 
CCOc1ccc(N=C(OCc2ccc(F)c(Oc3ccc(Cl)cc3)c2)C(C)C)cc1Cl [Compound 369] | 0.0016 | > 2.5 |  | > 100 |  | > 0.1 | > 0.01 | 
CC(C)C(=Nc1ccc(F)c(Cl)c1F)OCc1ccc(F)c(Oc2ccccc2)c1 [Compound 451] | 0.0001 | 0.065 | 0.0002 | 3.6 | 0.00025 | > 0.1 | 0.0051 | 
CC(C)C(=Nc1ccc(F)c(Cl)c1)OCc1cccc(Oc2ccc(F)cc2)n1 [Compound 461] | 0.00008 | > 2.5 |  | 6 |  | 0.01 | 0.0075 | 0.0035
CC(C)C(=Nc1ccc(F)c(Cl)c1)OCc1cc(Oc2ccc(F)cc2)ccc1F [Compound 230] | 0.0004 | > 2.5 |  | 36 |  | 0.1 | 0.038 | 
CCC(=Nc1ccc(F)c(Cl)c1)OCc1cccc(Oc2ccccc2)c1 [Compound 85] | 0.004 | > 2.5 | 0.003 | 7 |  | > 0.1 | > 0.01 | 
CC(C)C(=Nc1ccc(Cl)c(Cl)c1)OCc1ccc(F)c(Oc2ccc(Cl)cc2)c1 [Compound 296] | 0.00025 | 0.14 | 0.0003 | 38 | 0.00045 | 0.025 |  | 
C=C(C)C(=Nc1ccc(C(F)(F)F)cc1)OCc1ccc(F)c(Oc2ccccc2)c1 [Compound 431] | 0.00017 | 0.084 |  | 9.8 |  | 0.025 | 0.0037 | 
CC(C)C(=Nc1ccc(F)c(Cl)c1F)OCc1cccc(Oc2ccc(Cl)cc2)c1 [Compound 331] | 0.0002 | > 2.5 |  | 20 | 0.0004 | 0.04 |  | 0.002
CC(C)C(=Nc1cccc(Br)c1)OCc1ccc(F)c(Oc2ccccc2)c1 [Compound 387] | 0.0012 | > 2.5 |  | < 100 |  | 0.05 | > 0.01 | 
CC(C)C(=Nc1ccc(F)cc1)OCc1ccc(F)c(Oc2ccc(Cl)cc2)c1 [Compound 325] | 0.00012 | > 2.5 |  | 5 | 0.0006 | 0.037 |  | 0.0025
CC(C)C(=Nc1ccc(Br)c(Cl)c1)OCc1ccc(F)c(Oc2ccc(Cl)cc2)c1 [Compound 381] | 0.00092 | > 2.5 |  | < 100 |  | 0.018 | > 0.01 | 
CC(C)C(=Nc1ccc(C(F)(F)F)c(Br)c1)OCc1ccc(F)c(Oc2ccc(Cl)cc2)c1 [Compound 433] | 0.00017 | 0.078 |  | < 100 |  | 0.02 | 0.005 | 
CC(C)C(=Nc1ccc(F)c(Cl)c1)OCc1cccc(Oc2ccc(F)cc2)c1F [Compound 262] | 0.0004 | > 2.5 |  | 26 |  | > 0.1 | 0.005 | 
